Measurements from ChEMBL document CHEMBL3864126, “Identification of SENP1 inhibitors through in silico screening and rational drug design” (Eur J Med Chem, 2016).

Biological target: T1, Sentrin-specific protease 1 (Homo sapiens, UniProt Q9P0U3)
T1 sequence (Q9P0U3 whole entry): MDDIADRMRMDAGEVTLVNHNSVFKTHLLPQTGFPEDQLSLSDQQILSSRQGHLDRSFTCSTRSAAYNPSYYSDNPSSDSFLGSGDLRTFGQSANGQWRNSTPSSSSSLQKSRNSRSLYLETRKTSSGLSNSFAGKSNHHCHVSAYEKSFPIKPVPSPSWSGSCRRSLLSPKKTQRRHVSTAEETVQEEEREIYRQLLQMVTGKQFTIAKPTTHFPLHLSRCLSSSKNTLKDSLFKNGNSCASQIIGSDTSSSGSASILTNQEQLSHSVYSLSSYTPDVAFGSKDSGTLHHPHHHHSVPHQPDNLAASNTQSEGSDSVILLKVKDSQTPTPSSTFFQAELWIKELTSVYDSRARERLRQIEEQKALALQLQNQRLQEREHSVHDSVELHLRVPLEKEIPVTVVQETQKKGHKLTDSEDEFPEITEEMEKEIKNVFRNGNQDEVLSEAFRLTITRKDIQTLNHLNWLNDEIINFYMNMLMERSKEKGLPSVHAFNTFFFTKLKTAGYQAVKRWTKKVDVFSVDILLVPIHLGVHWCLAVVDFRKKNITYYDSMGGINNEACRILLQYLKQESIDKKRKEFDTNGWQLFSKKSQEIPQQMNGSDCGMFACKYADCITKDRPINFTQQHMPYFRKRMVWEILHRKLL
Assay: Inhibition of SENP1 catalytic domain (419 to 644 residues) (unknown origin) expressed in Escherichia coli BL21 (DE3) assessed as reduction in deSUMOylation preincubated for 10 mins followed by addition of RanGAP-SUMO as substrate measured after 25 mins by coomassie staining-based SDS-PAGE analysis

- IC50: 14 µM
SMILES: O=C(N/N=C/C1CCCCC1)c1cc(Cl)ccc1O
